# Publication PMC12381781, “Structural and functional insights into the selective inhibition of mutant tau aggregation by purpurin and oleocanthal in frontotemporal dementia” (Protein Science : A Publication of the Protein Society, 2025)
# “Also recorded” adds a separate entry of the source. Where two headings read alike, the source gives them in different places.
# How the values were obtained:
# R2R3 (WT) tau peptide = biological target: T1, R2R3 (WT) tau peptide (Homo sapiens, UniProt P10636); assay: Atomic force microscopy of R2R3 (WT) aggregates; format: biochemical; conditions: compound 10 μM, 48 h
# T1 construct: Peptides spanning R2R3—including PHF6 and PHF6*; purchased ProteoGenix (Schiltigheim, France); host or cells: chemical synthesis (custom peptide)
# T1 sequence (P10636 592-653 limits assumed): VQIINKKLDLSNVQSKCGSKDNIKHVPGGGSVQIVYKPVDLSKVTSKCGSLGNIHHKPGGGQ
# Procedure: Aggregates collected after 48 h of aggregation were processed for AFM analysis as described previously (Annadurai, Malina, Malohlava, et al., [2022]).
# R2R3 (P301L) tau peptide = R2R3 (P301L) tau peptide (Homo sapiens, UniProt P10636, P618L); assay: SPR titration cycle kinetics, immobilized R2R3 (P301L) peptide; format: binding
# Sequence of R2R3 (P301L) tau peptide (P10636 592-653 P618L): as the sequence (P10636 592-653 limits assumed) above, with P27L counted along it
# Procedure: SPR experiments were conducted using the Sierra® SPR‐24 Pro system (Bruker Daltonics, Bremen, Germany), featuring a gold‐coated microfluidic array (24 detection spots, 3 × 8 format). Data acquisition and kinetic analysis were performed using SPR Analyzer 4 software.
# All experiments were conducted at 25°C using PBS (pH 7.4) supplemented with 0.05% Tween‐20 and 5% DMSO as the running buffer to ensure assay reproducibility. Assay components, including 96‐well microtiter plates (Part # 1862984; Burker) and Microplate and Reservoir Sealer (Part #1862985; Burker), were used for sample handling and were compatible with the Sierra SPR®‐24 Pro system (Bruker Daltonics, Billerica, MA, USA).
# WT and mutant (P301L, V287I, and N279K) tau peptides were dissolved in 10 mM sodium acetate buffer (pH 5.0; Burker) and immobilized onto High‐Capacity Amine Sensor Surfaces (Part #1862614; Bruker) using the Amine Coupling Kit (Part #1862634; Bruker). The sensor surface was preconditioned with a Surface Elution Buffer (Part #1862656; Bruker Daltonics) and 0.1M HCl to remove contaminants and improve binding specificity.
# The surface was activated using 400 mM 1‐ethyl‐3‐(3‐dimethylaminopropyl) carbodiimide (Burker) and 50 mM N‐hydroxysuccinimide (Burker), enabling covalent attachment of tau peptides. Unreacted binding sites were blocked with 1M ethanolamine‐HCl (pH 8.5; Burker) to minimize nonspecific interactions. For each experiment, specific sensor spots (A/B/C) on channels 1–8 were designated for tau‐analyte interactions, with corresponding reference spots on the same channel for baseline correction. DMSO calibration solutions (4.6%, 4.8%, 5%, 5.2%, and 5.4%) were prepared for double referencing to compensate for DMSO solvent effects.
# PUR and OLC were prepared in PBS (pH 7.4) supplemented with 0.05% Tween‐20 and 5% DMSO. Compound interactions with tau peptides were pre‐screened using a concentration range of 1–100 μM, and subsequent binding kinetics were evaluated at optimized concentrations. For kinetic studies, PUR was tested at […], while OLC was tested at 25–100 μM using two‐fold serial dilutions. Each analyte was sequentially injected, and association and dissociation phases were monitored to determine kinetic parameters.
# SPR binding kinetics were assessed using the titration cycle kinetics (TCK) assay, which included consecutive association phases followed by a single dissociation phase. Pre‐assay simulations using the Kinetic Simulator feature of SPR Analyzer 4 software were used to optimize analyte concentration ranges and association/dissociation times. A reference blank injection was included for double referencing, and a single dissociation curve was recorded for the highest analyte concentration.
# Sensorgrams were analyzed using the Kinetic Titration model, which was integrated into the global kinetic fitting model of the SPR Analyzer 4 software. This approach allowed for baseline correction and improved the reliability of kinetic parameters, including the Kon, Koff, and KD.
# TCK‐derived kinetic parameters were compared across multiple runs and confirmed using Multi Injection Cycle Kinetics to validate reproducibility and accuracy.
# [1] = test system: Tau RD P301S FRET Biosensor cells; assay: Biosensor cell seeding assay, aggregation products formed with compound (co-aggregation); format: cell-based; conditions: 100 nM transduced, 48 h
# Procedure: Tau peptides were aggregated with or without PUR or OLC in a 7.4 pH aggregation buffer without ThT. After 48 h, the contents of each well were pooled to a final total volume of 120 μL. The concentration of the pooled Aggregation Reaction Products was measured using the Pierce™ BCA Protein Assay Kit (Thermo Fisher Scientific Inc., Cat. # 23225). The reaction products were standardized for cell transduction to a final concentration of 100 nM for both control and drug‐treated samples. The pooled aggregation mixture was sonicated using a Branson Ultrasonic™ Sonifier Cup Horns (Marshall Scientific, Hampton, NH, USA) at 30% amplitude (15 s ON and 15 s OFF for 1 min) to fragment larger aggregates into smaller ones, facilitating consistent transduction.
# Tau RD P301S FRET Biosensor cells were plated at 5 × 10^3 cells per well in PhenoPlate 384‐well, black, optically clear flat‐bottom plates (Revvity; Part # 6057302) pre‐coated with 50 μg/mL Poly‐ᴅ‐Lysine (Sigma‐Aldrich, Cat. # P6407). After plating, cells were incubated for 30 min at room temperature to promote better cell spreading before returning the plates to the incubator.
# The next day, cells were transduced with 100 nM of aggregation mixture, which were either: (i) prepared in the absence (control) or presence of 10 μM PUR or OLC for co‐aggregation studies (Figure 5), or (ii) prepared exclusively in the absence of compounds for post‐transduction treatment studies (Figure 6). The aggregation mixtures were premixed with 0.2 μL per well TurboFect™ Transfection Reagent (Thermo Fisher Scientific Inc., Cat. # R0533) in 10 μL Opti‐MEM™ (Thermo Fisher Scientific Inc., Cat. #11058021) and added to cells.
# For co‐aggregation studies (Figure 5), cells were cultured for 48 h after transduction before processing for imaging. For post‐transduction treatment studies (Figure 6), cells were cultured for 24 h following transduction, then treated with PUR or OLC at concentrations ranging from 0 to 10 μM, and incubated for an additional 24 h.
# In both experiments (Figures 5 and 6), cells were fixed after a total of 48 h with 2% paraformaldehyde (Electron Microscopy Services, Cat. #15714‐1 L) for 10 min at room temperature, washed once with 1× PBS, and stained with 10 μM Hoechst‐33342 nuclear dye (Invitrogen, Cat. #H21492) for 10–15 min. To preserve samples for imaging, 1% glycerol in deionized water was added to each well.
# Cells were imaged on a Cell Voyager 7000S high‐content imaging system (Yokogawa, Tokyo, Japan) with a 20× objective. CFP/YFP inclusions of seeded tau were detected using a 488 nm laser line (Ex = 460–490 nm, Em = 500–550 nm), and Hoechst‐stained nuclei were detected using a 405 nm laser line (Ex = 360–400 nm, Em = 410–480 nm). At least 10–15 focal areas per well were imaged for each replicate. Image analysis was performed using Signals Image Artist (Revvity) to quantify the number of cells (Hoechst‐stained nuclei) and intracellular CFP/YFP inclusions. Total inclusions per well were normalized to cell confluence and are presented as normalized seeding for graphing.
# [2] = R2R3 N279K aggregated with 10 μM compound
# [3] = R2R3 P301L aggregated with 10 μM compound
# [4] = R2R3 V287I aggregated with 10 μM compound
# [5] = R2R3 WT aggregated with 10 μM compound
Structure (SMILES),AFM morphology of aggregates (R2R3 (WT) tau peptide),"Kon (R2R3 (P301L) tau peptide; SPR, R2R3 P301L) [M⁻¹ s⁻¹]","koff (R2R3 (P301L) tau peptide; SPR, R2R3 P301L) [s⁻¹]","Kd (R2R3 (P301L) tau peptide; SPR, R2R3 P301L peptide immobilized, 25°C, PBS pH 7.4, read-out: KD) [µM]","intracellular seeding (CFP/YFP inclusions) by aggregation products [1, 2]","intracellular seeding (CFP/YFP inclusions) by aggregation products [1, 3]","intracellular seeding (CFP/YFP inclusions) by aggregation products [1, 4]","intracellular seeding (CFP/YFP inclusions) by aggregation products [1, 5]",Kd (R2R3 (P301L) tau peptide) [µM],"kon (R2R3 (P301L) tau peptide; SPR, R2R3 P301L) [M⁻¹ s⁻¹]","koff (R2R3 (P301L) tau peptide; SPR, R2R3 P301L, read-out: Koff) [s⁻¹]"
"C/C=C(/C=O)[C@@H](CC=O)CC(=O)OCCc1ccc(O)cc1 [OLC, oleocanthal]","shorter, fragmented fibrils",52.36,8.26e-05,1.58,abolished the formation of species capable of inducing intracellular seeding; also recorded: significantly reduced seeding,abolished the formation of species capable of inducing intracellular seeding; also recorded: significantly reduced seeding,abolished the formation of species capable of inducing intracellular seeding; also recorded: near‐complete inhibition of seeding,effectively abolishing intracellular seeding,–,–,–
"O=C1c2ccccc2C(=O)c2c(O)c(O)cc(O)c21 [PUR, purpurin]","shorter, fragmented fibrils",–,–,–,abolished the formation of species capable of inducing intracellular seeding; also recorded: significantly reduced seeding,abolished the formation of species capable of inducing intracellular seeding; also recorded: significantly reduced seeding,abolished the formation of species capable of inducing intracellular seeding; also recorded: near‐complete inhibition of seeding,did not affect the seeding competency,14.8,26.4,0.00039
